Assay results from US20050148763A1, “Peg-binding pth or peg-binding pth derivative” (Chugai Seiyaku Kabushiki Kaisha, priority 2002, published 2005).

Columns and labels:
[1] = Hypercalcemic effect of PEG-[Cys^35]-PTH(1-35) in normal female DDY mice; assay type: in vivo; details: for Blood iCa level Hour 1: 1 hour after administration; for Blood iCa level Hour 3: 3 hours; for Blood iCa level Hour 6: 6 hours; for Blood iCa level Hour 9: 9 hours; for Blood iCa level Hour 24: 24 hours; for Blood iCa level Hour 0: before administration
Experimental: 2 k, 5 k and 20 k PEG-[Cys^35]-PTH(1-35) were also adjusted similarly to 30, 10 and 2 nmol/mL (calculated as PTH) and allowed to stand on ice immediately before administration.
Using female DDY mice at 6 weeks of age (Japan SLC, Inc.), the corrected level of ionized calcium at pH 7.4 was determined for each sample in the same manner as shown in (1) above. The mice received subcutaneous administration of each drug at a dose of 5 mL/kg. The buffer was administered to a group of 5 mice. […] 150 nmol/kg 2 k, 5 k and 20 k PEG-[Cys^35]-PTH(1-35) were administered to groups of 4 mice each. 50 and 10 nmol/kg 2 k, 5 k and 20 k PEG-[Cys^35]-PTH(1-35) were administered to groups of 5 mice each. At 1, 3, 6, 9 and 24 hours after administration, blood was collected by orbital puncture to monitor the time course of corrected blood ionized calcium levels.

[2] = Hypercalcemic effect of PEG-PTH(1-34) in normal male BDF1 mice; assay type: in vivo; details: sc, hPTH(1-34) 50-500 nmol/kg, PEG-PTHs 150 nmol/kg
Experimental: 2 k and 5 k PEG-PTH(1-34) were also adjusted similarly to 30 nmol/mL (calculated as PTH) and allowed to stand on ice immediately before administration.
Male BDF1 mice at 5 weeks of age (Charles River Japan, Inc.) were measured for their body weight. Immediately before drug administration, blood was collected by orbital puncture into heparinized capillary tubes and measured for baseline levels of blood ionized calcium and pH using a Ca^2+/pH analyzer (Model 348/Bayer Medical Ltd.) to give the corrected level of ionized calcium at pH 7.4 for each sample. The mice received subcutaneous administration of each drug at a dose of 5 mL/kg. […] At 1, 3 and 6 hours after administration, blood was collected by orbital puncture to monitor the time course of corrected blood ionized calcium levels.

[3] = clinical, single subcutaneous 20-40 μg, at 4 to 6 hours after administration; cited from earlier work
[4] = Increasing effect on bone mass in OVX rats; assay type: in vivo
Experimental: 2 k PEG-[Cys^35]-PTH(1-35) was studied for the increasing effect on bone mass in OVX rats as follows. […] These samples were divided into aliquots and stored at −80° C. until use.
Female SD-IGS rats at 7 weeks of age (Charles River Japan, Inc.) were used, 60 of which were ovariectomized (OVX) to remove both ovaries and 7 of which were sham-operated. After 2 weeks, the ovariectomized rats were measured for their body weight and divided into groups of 6 rats each such that the mean body weights of all groups were identical.
Each drug was given subcutaneously at a dose of 1 ml/kg on a 5 times-a-week basis for 4 weeks. On the last day of administration, the rats were housed in metabolic cages and 24-hour urine was collected from each rat. On the following day, after the rats were euthanized by exsanguination under anesthesia, an autopsy was performed to collect blood, lumbar vertebrae and femurs. The urine and blood were taken into tubes and centrifuged to collect the respective supernatants, which were stored at −20° C. until assayed for parameters. The lumbar vertebrae and right femurs were stored in 70% ethanol. The average bone density of the second to fifth lumbar vertebrae and the bone density of the right femur were measured using a dual X-ray bone mineral densitometer (DCS-600EX, ALOKA).

rat PTH1 receptors = target: T1, rat PTH1 receptors (Rattus norvegicus, UniProt P25961); experiment: in vitro ability to produce cAMP, EW29 cells; assay type: cell-based; details: Table 2(3), n=2-3
T1 construct: expressed in transfected cells; host or cells: EW29 cells
T1 sequence (P25961 27-591): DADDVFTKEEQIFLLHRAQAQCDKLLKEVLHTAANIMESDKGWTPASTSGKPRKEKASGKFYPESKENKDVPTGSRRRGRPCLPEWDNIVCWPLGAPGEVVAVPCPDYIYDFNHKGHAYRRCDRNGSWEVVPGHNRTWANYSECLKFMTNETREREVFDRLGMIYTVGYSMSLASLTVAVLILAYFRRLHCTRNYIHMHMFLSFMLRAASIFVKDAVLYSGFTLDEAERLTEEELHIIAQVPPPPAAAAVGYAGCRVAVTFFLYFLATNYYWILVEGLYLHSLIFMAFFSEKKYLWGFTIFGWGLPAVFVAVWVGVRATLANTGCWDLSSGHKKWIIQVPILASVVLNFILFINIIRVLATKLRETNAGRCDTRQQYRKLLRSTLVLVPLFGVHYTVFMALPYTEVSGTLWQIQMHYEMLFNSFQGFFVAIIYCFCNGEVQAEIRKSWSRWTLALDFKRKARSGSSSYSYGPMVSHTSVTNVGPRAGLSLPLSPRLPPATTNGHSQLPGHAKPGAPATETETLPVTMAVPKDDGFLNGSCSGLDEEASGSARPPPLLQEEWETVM
Experimental: Each PEG-PTH sample was assayed for its ability to produce cAMP (indicative of the increasing effect of PTH on bone mass) as follows. […] These cells were seeded in 96-well plates at 1×10^5 cells/well and incubated overnight. […] After removing the reaction solution, the plates were placed on powdered dry ice to freeze the cells and then removed from the dry ice. The cells were thawed with 50 μL of 50 mM HCl and frozen again on dry ice. The level of intracellular cAMP was determined with a commercially available EIA kit (Biotrak cAMP EIA system, Amersham).

Compound | Blood iCa level Hour 1 ([1]; 50 nmol/kg sc) [mM] | Blood iCa level Hour 3 ([1]; 50 nmol/kg sc) [mM] | Blood iCa level Hour 6 ([1]; 50 nmol/kg sc) [mM] | Blood iCa level Hour 9 ([1]; 50 nmol/kg sc) [mM] | Blood iCa level Hour 24 ([1]; 50 nmol/kg sc) [mM] | Blood iCa level Hour 0 ([1]; 50 nmol/kg sc) [mM] | Blood iCa level Hour 1 ([1]; 150 nmol/kg sc) [mM] | Blood iCa level Hour 3 ([1]; 150 nmol/kg sc) [mM] | Blood iCa level Hour 6 ([1]; 150 nmol/kg sc) [mM] | Blood iCa level Hour 9 ([1]; 150 nmol/kg sc) [mM] | Blood iCa level Hour 24 ([1]; 150 nmol/kg sc) [mM] | Blood iCa level Hour 0 ([1]; 150 nmol/kg sc) [mM] | time of maximum increase in blood ionized calcium levels after administration ([1]; female DDY mice, sc) [h] | also measured
CC[C@H](C)[C@H](NC(=O)[C@H](CCC(=O)O)NC(=O)[C@H](CO)NC(=O)[C@@H](NC(=O)[C@@H](N)CO)C(C)C)C(=O)N[C@@H](CCC(N)=O)C(=O)N[C@@H](CC(C)C)C(=O)N[C@@H](CCSC)C(=O)N[C@@H](Cc1cnc[nH]1)C(=O)N[C@@H](CC(N)=O)C(=O)N[C@@H](CC(C)C)C(=O)NCC(=O)N[C@@H](CCCCN)C(=O)N[C@@H](Cc1cnc[nH]1)C(=O)N[C@@H](CC(C)C)C(=O)N[C@@H](CC(N)=O)C(=O)N[C@@H](CO)C(=O)N[C@@H](CCSC)C(=O)N[C@@H](CCC(=O)O)C(=O)N[C@@H](CCCN=C(N)N)C(=O)N[C@H](C(=O)N[C@@H](CCC(=O)O)C(=O)N[C@@H](Cc1c[nH]c2ccccc12)C(=O)N[C@@H](CC(C)C)C(=O)N[C@@H](CCCN=C(N)N)C(=O)N[C@@H](CCCCN)C(=O)N[C@@H](CCCCN)C(=O)N[C@@H](CC(C)C)C(=O)N[C@@H](CCC(N)=O)C(=O)N[C@@H](CC(=O)O)C(=O)N[C@H](C(=O)N[C@@H](Cc1cnc[nH]1)C(=O)N[C@@H](CC(N)=O)C(=O)N[C@@H](Cc1ccccc1)C(=O)O)C(C)C)C(C)C [hPTH(1-34), reference compound] | 1.45 ± 0.03 | 1.43 ± 0.03 | 1.33 ± 0.02 | 1.27 ± 0.05 | 1.36 ± 0.02 | 1.31 ± 0.03 | 1.46 ± 0.02 | 1.48 ± 0.03 | 1.36 ± 0.02 | 1.32 ± 0.04 | 1.36 ± 0.03 | 1.33 ± 0.03 | 3 | Blood iCa level Hour 1 ([1]; 500 nmol/kg sc): 1.44 ± 0.04 mM; Blood iCa level Hour 3 ([1]; 500 nmol/kg sc): 1.46 ± 0.04 mM; Blood iCa level Hour 6 ([1]; 500 nmol/kg sc): 1.43 ± 0.01 mM; Blood iCa level Hour 9 ([1]; 500 nmol/kg sc): 1.27 ± 0.04 mM; Blood iCa level Hour 24 ([1]; 500 nmol/kg sc): 1.39 ± 0.02 mM; Blood iCa level Hour 0 ([1]; 500 nmol/kg sc): 1.34 ± 0.03 mM; time of maximum increase in blood ionized calcium levels after administration [2]: one; blood calcium levels (in words) [3]: transient elevation of blood calcium levels
2 k PEG-[Cys^35]-hPTH(1-35): [Cys^35]-PTH(1-35) conjugated with mPEG 2 k-MAL (2 kDa methoxy-PEG-maleimide) at the C-terminal cysteine (SVSEIQLMHNLGKHLNSMERVEWLRKKLQDVHNFC; Parathyroid hormone 2 kDa mPEG-maleimide at Cys35; UniProt P01270 32-66, looked up, variant V35C) | 1.41 ± 0.02 | 1.47 ± 0.03 | 1.47 ± 0.02 | 1.29 ± 0.05 | 1.34 ± 0.03 | 1.27 ± 0.03 | 1.44 ± 0.02 | 1.47 ± 0.05 | 1.48 ± 0.05 | 1.26 ± 0.02 | 1.34 ± 0.03 | 1.32 ± 0.02 | 3 | lumbar and femoral bone density, significance (in words) ([4]; OVX rats, 7.5, 30 and 120 nmol/kg sc, 4 weeks): statistically-significant increases in both lumbar and femoral bone density; lumbar and femoral bone density (in words) ([4]; OVX rats, sc 5 times a week for 4 weeks): dose-dependent increases in lumbar and femoral bone density; Blood iCa level Hour 1 ([1]; 10 nmol/kg sc): 1.44 ± 0.03 mM; Blood iCa level Hour 3 ([1]; 10 nmol/kg sc): 1.48 ± 0.02 mM; Blood iCa level Hour 6 ([1]; 10 nmol/kg sc): 1.39 ± 0.02 mM; Blood iCa level Hour 9 ([1]; 10 nmol/kg sc): 1.32 ± 0.04 mM; Blood iCa level Hour 24 ([1]; 10 nmol/kg sc): 1.37 ± 0.02 mM; Blood iCa level Hour 0 ([1]; 10 nmol/kg sc): 1.30 ± 0.04 mM; increased blood ionized calcium level maintained until ([1]; female DDY mice, sc): 6 h; Maximum cAMP response (rat PTH1 receptors): 52.2 ± 12.3 pmol/well; EC50 (rat PTH1 receptors; cAMP production): 2.2 nM
